The conditions of this series: alkaline pH versus neutral and acidic pH.

`O=C([O-])CN(CCN(CC(=O)[O-])CC(=O)[O-])CC(=O)[O-].[Ag+].[Ag+].[Zn+2]` [Ag2Zn(EDTA)]: the “stability of the active ingredient-containing solution (precipitation)” value is listed as “can be stabilized by an alkaline pH”.

Source of the values: US20260041811A1, “HYDROGEL FOR THE REDUCTION OF BIOFILMS” (PAUL HARTMANN AG, priority 2022, published 2026).
